Data: patent US20020028809A1 (SUNTORY LIMITED, priority 1999, published 2002)
pEC50, pKi: −log10 of the molar value. Where two headings read alike, the source gives them in different places.

Key:
[1] = molecular target: T1, α4β2 subtype of nicotinic acetylcholine receptors (Rattus norvegicus, UniProt P09483+P12390); assay: Binding assays at α4β2 subtype of nicotinic acetylcholine receptors ([3H]-cytisine, rat brain membrane)
T1 construct: examined using rat brain membrane obtained from whole homogenized brain; from tissue; host or cells: whole brain of Fischer-344 male rats, membrane pellet
T1 sequence (P09483 31-630): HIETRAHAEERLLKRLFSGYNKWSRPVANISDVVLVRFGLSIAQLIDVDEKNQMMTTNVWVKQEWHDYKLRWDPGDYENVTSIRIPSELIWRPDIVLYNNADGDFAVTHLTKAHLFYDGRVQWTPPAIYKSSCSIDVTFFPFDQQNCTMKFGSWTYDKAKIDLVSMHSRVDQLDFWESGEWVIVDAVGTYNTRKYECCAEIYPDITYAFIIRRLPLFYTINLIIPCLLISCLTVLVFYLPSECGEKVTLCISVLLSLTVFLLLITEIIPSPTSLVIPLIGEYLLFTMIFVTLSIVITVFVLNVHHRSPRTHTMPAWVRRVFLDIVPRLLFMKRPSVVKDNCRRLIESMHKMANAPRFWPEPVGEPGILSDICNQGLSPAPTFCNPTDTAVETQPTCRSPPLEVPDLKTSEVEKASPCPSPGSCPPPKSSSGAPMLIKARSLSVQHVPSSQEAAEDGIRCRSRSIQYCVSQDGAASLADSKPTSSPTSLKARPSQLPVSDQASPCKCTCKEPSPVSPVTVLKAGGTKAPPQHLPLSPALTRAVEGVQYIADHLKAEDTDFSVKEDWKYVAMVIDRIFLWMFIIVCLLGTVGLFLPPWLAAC
T1 sequence (P12390 25-500): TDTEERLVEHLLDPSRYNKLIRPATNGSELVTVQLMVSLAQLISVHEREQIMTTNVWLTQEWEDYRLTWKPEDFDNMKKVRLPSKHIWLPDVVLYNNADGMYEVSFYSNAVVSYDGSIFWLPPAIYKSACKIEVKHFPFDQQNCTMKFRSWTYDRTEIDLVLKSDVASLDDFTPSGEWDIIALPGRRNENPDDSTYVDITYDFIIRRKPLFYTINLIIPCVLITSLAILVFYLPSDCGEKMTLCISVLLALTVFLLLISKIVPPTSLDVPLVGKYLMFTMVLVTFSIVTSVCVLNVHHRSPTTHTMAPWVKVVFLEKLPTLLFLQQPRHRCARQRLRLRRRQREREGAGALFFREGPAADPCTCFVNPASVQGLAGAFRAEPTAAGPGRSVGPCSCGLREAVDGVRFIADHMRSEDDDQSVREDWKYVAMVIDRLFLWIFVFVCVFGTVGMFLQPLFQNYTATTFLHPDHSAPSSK
Description: (§1) Methods for evaluating binding capabilities of the compounds at nicotinic acetylcholine receptors are different by subtypes of receptors. Binding capabilities of the compounds at α4β2 nicotinic acetylcholine receptors are examined using rat brain membrane obtained from whole homogenized brain, and determining the inhibiting rate of the compounds against [^3H]-cytisine binding to said brain membrane. Furthermore, the binding capabilities of the compounds at α1β1γδ nicotinic acetylcholine receptors are examined using homogenized rat muscle, and determining the inhibiting rate of the compounds against [^3H]-α-bungarotoxin binding to said muscle homogenate.
Binding assays at α4β2 Subtype of Nicotinic Acetylcholine Receptors
(1) Preparation of Rat Brain Membrane Containing α4β2 Subtype of Nicotinic Acetylcholine Receptors
Rats were housed in the breeding cage controlled of the room temperature at 23±1° C., and the humidity of 55±5% for 1 to 4 weeks. Rats (3 to 4 rats per a cage) were housed with lights on for 12 hours daily (from 7:00 to 19:00), and allowed free access to food and water.
Preparation of rat brain membrane containing α4β2 subtype of nicotinic acetylcholine receptors was performed as follow. That is, rat brains were isolated just after sacrificed by decapitation, washed with ice-cooled saline solution and then frozen at −80° C. with liquid nitrogen and stored till using. After thawing the frozen brain, the brain was homogenized in 10 volumes of ice-cooled buffer solution (50 mM of Tris-HCl, 120 mM of NaCl, 5 mM of KCl, 1 mM of MgCl2, 2mM of CaCl2; pH 7.4; 4° C.) using homogenizer (HG30, Hitachi Kohki Ltd.) for 30 seconds, and the homogenate were centrifuged under 1,000×G for 10 minutes at 4° C. The resulting supernatant was separated and the pellet was homogenized again with half volume of aforementioned prior buffer solution and centrifuged under the same conditions. Combined supernatant was further centrifuged under 40,000×G for 20 minutes at 4° C. The pellet was suspended in buffer solution and used for binding assays at receptors.
(2) Experiments of α4β2 Subtype of Nicotinic Acetylcholine Receptors Binding
Suspensions of membrane pellets containing 400-600 μg of protein were added to test tubes containing test compounds and [^3H]-cytisine (2 nM) in a final volume of 200 μl and incubated for 75 minutes in ice-cooled bath. The samples were isolated by vacuum filtration onto Whatman GF/B filters, which were prerinsed with 0.5% polyethylenimine just prior to sample filtration, using Brandel multi manifold cell harvester. The filters were rapidly washed with buffer solution (3×1 ml). The filters were counted in 3 ml of clearsol I (Nacalai Tesque Inc.).
Analyses of the experimental results were conducted using the Accufit Competition Program (Beckman Ltd.).

[2] = molecular target: T2, α1β1γδ subtype of nicotinic acetylcholine receptors (Rattus norvegicus, UniProt P18916+P25108+P25109+P25110); assay: Binding assays at α1β1γδ subtype of nicotinic acetylcholine receptors ([3H]-α-bungarotoxin, rat muscle extract); conditions: for remaining activity at 100 µM / remaining activity at 1000 µM: read-out: control % of [3H]-α-Bgt binding
T2 construct: Native receptor, no construct: "Triton X100 (2% w/v) was added
T2 sequence (P25108 21-457): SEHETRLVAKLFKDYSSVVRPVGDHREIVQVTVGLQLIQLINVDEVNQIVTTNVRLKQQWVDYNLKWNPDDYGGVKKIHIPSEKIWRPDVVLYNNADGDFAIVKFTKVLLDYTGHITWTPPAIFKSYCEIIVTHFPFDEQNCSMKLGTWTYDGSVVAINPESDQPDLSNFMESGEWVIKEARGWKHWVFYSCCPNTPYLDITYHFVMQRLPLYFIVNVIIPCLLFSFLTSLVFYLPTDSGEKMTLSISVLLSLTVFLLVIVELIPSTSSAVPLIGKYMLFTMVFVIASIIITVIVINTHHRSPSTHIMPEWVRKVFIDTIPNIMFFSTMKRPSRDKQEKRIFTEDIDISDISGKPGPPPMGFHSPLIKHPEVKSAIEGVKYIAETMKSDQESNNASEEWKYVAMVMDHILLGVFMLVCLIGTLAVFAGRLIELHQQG
T2 sequence (P25110 22-517): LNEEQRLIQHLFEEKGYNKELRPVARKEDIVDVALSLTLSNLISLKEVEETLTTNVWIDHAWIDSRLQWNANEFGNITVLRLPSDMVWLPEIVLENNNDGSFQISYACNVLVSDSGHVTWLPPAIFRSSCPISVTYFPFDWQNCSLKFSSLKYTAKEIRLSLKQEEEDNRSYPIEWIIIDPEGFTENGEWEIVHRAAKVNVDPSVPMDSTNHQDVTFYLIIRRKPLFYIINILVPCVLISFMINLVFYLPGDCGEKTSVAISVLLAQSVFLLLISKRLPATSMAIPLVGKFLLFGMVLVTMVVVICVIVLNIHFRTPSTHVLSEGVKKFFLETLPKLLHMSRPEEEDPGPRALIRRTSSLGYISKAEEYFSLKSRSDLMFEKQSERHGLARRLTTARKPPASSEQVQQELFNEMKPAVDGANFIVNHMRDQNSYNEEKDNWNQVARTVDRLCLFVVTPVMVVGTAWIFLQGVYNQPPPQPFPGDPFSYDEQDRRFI
T2 sequence (P25109 24-501): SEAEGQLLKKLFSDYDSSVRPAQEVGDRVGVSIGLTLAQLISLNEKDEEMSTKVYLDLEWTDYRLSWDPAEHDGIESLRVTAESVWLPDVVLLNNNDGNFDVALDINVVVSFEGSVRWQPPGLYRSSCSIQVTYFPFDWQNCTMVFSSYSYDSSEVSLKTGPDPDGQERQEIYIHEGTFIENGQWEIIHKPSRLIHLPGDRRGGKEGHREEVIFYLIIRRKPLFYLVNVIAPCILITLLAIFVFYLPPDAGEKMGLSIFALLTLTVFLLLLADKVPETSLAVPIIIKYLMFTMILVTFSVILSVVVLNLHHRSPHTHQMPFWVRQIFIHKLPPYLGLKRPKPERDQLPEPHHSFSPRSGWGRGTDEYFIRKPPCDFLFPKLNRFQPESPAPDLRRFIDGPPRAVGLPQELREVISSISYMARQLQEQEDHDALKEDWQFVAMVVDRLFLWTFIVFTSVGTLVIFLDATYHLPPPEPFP
Description: as §1
Binding Assays at α1β1γδ Subtype of Nicotinic Acetylcholine Receptors
Affinity of the compounds of the present invention to α1βγδ subtype of nicotinic acetylcholine receptors was measured by the following method, which was modified method described by Garcha H. S., Thomas P., Spivak C.
(1) Preparation of Rat Skeletal Muscles Containing α1β1γδ Subtype of Nicotinic Acetylcholine Receptors
The substantially same animals described in the Biological Experiment 1 were used.
Isolation of α1β1γδ subtype of nicotinic acetylcholine receptors was performed as follow. That is, rat posterior skeletal muscles were isolated just after sacrificed by decapitation, washed with ice-cooled saline solution and then frozen at −80° C. with liquid nitrogen and stored till using. After thawing the frozen muscles, tissue was homogenized (40% w/v) with buffer solution [2.5 mM of sodium phosphate buffer (pH:7.2), 90 mM of NaCl, 2 mM of KCl, 1 mM of EDTA, 2 mM of benzamidine, 0.1 mM of benzethonium chloride, […], 0.01% of sodium azide] in Waring blender (Waring blender 34BL97; WARING PRODUCTS DIVISION DYNAMICS CORPORATION OF AMERICA) for 60 seconds. The homogenate were centrifuged under 20,000×G for 60 minutes at 4° C. The supernatant was separated and the resulting pellet was added to the same buffer (1.5 ml/g wet weight), and homogenized under the same conditions. Triton X100 (2% w/v) was added and the mixture was stirred for 3 hours at 4° C. The centrifugation at 100,000×G for 60 minutes at 4° C. yielded the rat muscle extract as supernatant. This was stored at 4° C. for up to 4 weeks, and used for binding assays at receptors.
(2) Experiments of α1β1γδSubtype of Nicotinic Acetylcholine Receptors Binding
Receptors binding experiments were performed as follow. That is, the extract of rat muscle containing 600-900 μg of protein was added to test tubes containing test compounds and incubated for 15 minutes at 37° C. Then, to this mixture was added 1 nM of [^3H]-α-bungarotoxin (α-Bgt) and further incubated for 2 hours. The samples were isolated by vacuum filtration onto Whatman GF/B filters, which were prerinsed with 0.5% polyethylenimine just prior to sample filtration, using Brandel multi manifold cell harvester. The filters were rapidly rinsed with washing solution (10 mM of KH2PO4, 150 mM of NaCl, pH 7.2, room temperature) (5×1 ml). The filters were counted in 3 ml of clearsol I (Nacalai Tesque Inc.). Determination of nonspecific binding was incubated in the presence of 1 μM α-Bgt.
In the receptor binding experiments, said buffer solution was added for adjusting the final concentration of BSA to be 0.05%.
Analyses of the experimental results were conducted by the same way as described in the Biological Experiment 1.

[3] = molecular target: T3, human α4β2 subtype of nicotinic acetylcholine receptors (Homo sapiens, UniProt P17787+P43681); assay: Agonist activities at human α4β2 subtype of nicotinic acetylcholine receptors expressed in Xenopus oocytes (membrane potential holding method); type: cell-based
T3 construct: expressed in transfected cells; host or cells: Xenopus laevis oocytes injected with 50 ng each of α4 and β2 cRNA (pSP64 polyA vector)
T3 sequence (P43681 29-627 limits assumed): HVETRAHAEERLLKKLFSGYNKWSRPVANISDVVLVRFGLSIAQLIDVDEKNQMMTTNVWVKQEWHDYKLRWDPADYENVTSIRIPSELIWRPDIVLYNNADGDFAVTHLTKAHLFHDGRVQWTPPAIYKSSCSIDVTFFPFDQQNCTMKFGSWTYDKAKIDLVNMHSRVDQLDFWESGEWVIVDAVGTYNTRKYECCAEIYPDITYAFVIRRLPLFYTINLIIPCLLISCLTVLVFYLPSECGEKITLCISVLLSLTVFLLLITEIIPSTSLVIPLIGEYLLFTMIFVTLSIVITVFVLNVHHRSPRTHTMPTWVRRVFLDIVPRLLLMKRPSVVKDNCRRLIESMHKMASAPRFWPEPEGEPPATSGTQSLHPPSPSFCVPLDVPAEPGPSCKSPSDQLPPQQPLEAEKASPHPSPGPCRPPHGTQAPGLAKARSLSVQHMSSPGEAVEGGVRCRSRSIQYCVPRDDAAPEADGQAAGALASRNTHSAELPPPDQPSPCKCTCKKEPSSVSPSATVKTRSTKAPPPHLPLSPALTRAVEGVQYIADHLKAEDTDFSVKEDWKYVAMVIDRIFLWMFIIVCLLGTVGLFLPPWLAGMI
T3 sequence (P17787 26-502): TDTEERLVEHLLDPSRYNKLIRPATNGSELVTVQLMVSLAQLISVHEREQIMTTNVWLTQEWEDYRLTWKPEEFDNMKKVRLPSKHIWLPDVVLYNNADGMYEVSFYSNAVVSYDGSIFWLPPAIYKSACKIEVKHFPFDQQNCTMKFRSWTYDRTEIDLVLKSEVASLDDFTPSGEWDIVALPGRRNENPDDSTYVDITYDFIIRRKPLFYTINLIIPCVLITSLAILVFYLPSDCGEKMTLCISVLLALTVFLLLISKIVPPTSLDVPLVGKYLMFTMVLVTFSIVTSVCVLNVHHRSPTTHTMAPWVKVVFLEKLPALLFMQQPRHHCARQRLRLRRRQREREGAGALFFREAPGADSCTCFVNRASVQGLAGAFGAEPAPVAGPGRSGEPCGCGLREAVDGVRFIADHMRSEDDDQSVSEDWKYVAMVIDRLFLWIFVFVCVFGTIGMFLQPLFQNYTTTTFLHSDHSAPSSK
Protocol: Agonist effect in human α4β2 subtype of nicotinic acetylcholine receptors are examined by using human nicotinic acetylcholine receptors prepared in oocytes of Xenopus laevis, which is injected with cRNA from the corresponding cloning cDNA of human α4 and β2 subunits of nicotinic acetylcholine receptors, and to measure the expression of electric response by adding the test compounds to perfusion solution by means of membrane potential holding method.
Agonist Activities at Human α4β2 Subtype of Nicotinic Acetylcholine Receptors
(1) Preparation of cRNA of Human α4β2 Subtype of Nicotinic Acetylcholine Receptors
Obtained hnACh-R α4 cDNA and hnACh-R β2 cDNA were inserted to the cRNA expression vector (pSP64 polyA) having SP6 RNA promoter to construct hnACh-R α4/pSP64 polyA and hnACh-R β2/pSP64 polyA, respectively. After cutting from expression vector by restriction enzyme (EcoRI), transcription was performed by affecting SP6 RNA polymerase in the presence of cap analogues to obtain hnACh-R α4 cRNA and hnACh-R β2 cRNA, respectively.
(2) Expression of Human α4β2 Subtype Nicotinic Acetylcholine Receptors in Xenopus oocytes
Oocytes were purchased from Kitanihonseibutsukyohzai Co., Ltd., which were already enucleated from Xenopus laevis, and used in this experiment.
The oocytes were treated with collagenase (Sigma type I; 1 mg/ml) in calcium-free modified Birth's solution (88 mM of NaCl, 1 mM of KCl, 2.4 mM of NaHCO3, 0.82 mM of MgSO4, 15 mM of HEPES, pH 7.6) under gently stirring at room temperature for 90 minutes, and washed out the enzyme from the tissue. Then, oocytes were separated from ovarian follicle by tweezers, and isolated oocytes were placed in antibiotics containing modified Birth's solution (88 mM of NaCl, 1 mM of KCl, 2.4 mM of NaHCO3, 0.82 mM of MgSO4, 15 mM of HEPES, pH 7.6, and 0.1 v/v% of mixture solution containing of penicillin and streptomycin for incubation; Sigma Co.). […] In oocytes, heterogeneous quintuple [(α4)2(β2)3] was composed by translation of injected cRNAs, and ion channel receptors were constructed on cell membrane.
(3) Agonist Activities at Human α4β2 Subtype of Nicotinic Acetylcholine Receptors
Recordings of response at human α4β2 subtype of nicotinic acetylcholine receptors by means of membrane potential holding method were performed as follow. […] Test compounds were added to the perfusion solution, and recorded the peak strength of induced inward current. In order to normalize the response of test compounds, the response with acetylcholine (Ach) were recorded before and after application of the test compounds. Generally in the oocytes just after isolated, the response of intrinsic muscarinic acetylcholine receptors, which is inward electric current caused by activation of calcium dependence chloride ion channels with increase of the intracellular calcium concentration by stimulation of receptors, is observed. […] Therefore, the responses observed in oocytes with injection of hnACh-R α4 cRNA and hnACh-R β2 cRNA, i.e., the inward current induced by the intracellular influx of sodium ion according to the stimulation of receptors, would be the freshly observed responses of human α4β2 subtype nicotinic acetylcholine receptors.

[4] = at 1 μM of test compound, rat brain membrane
[5] = at 10 μM of test compound, rat brain membrane

N=c1sccn1Cc1cccnc1 [Compound 1, 2-imino-3-(3-pyridyl)methyl-2,3-dihydrothiazole]
pKi [1]: 8.32
pKi [2]: 5.31
Emax at 100 µM ([3]; read-out: Agonist activity: control % by response at 100 μM of the test compound): 20%

N=c1ccc(Cl)nn1Cc1ccc(Cl)nc1 [Compound 6, 6-chloro-2-(6-chloro-3-pyridyl)methyl-3-imino-2,3-dihydropyridazine]
pKi [1]: 7.82
remaining activity at 100 µM [2]: 44%
remaining activity at 1000 µM [2]: 15%
pEC50 [3]: 4.07

N=c1ncc(-c2ccccc2)cn1Cc1ccc(Cl)nc1 [Compound 46, 1-(6-chloro-3-pyridyl)methyl-2-imino-5-phenyl-1,2-dihydropyrimidine]
pKi [1]: 6.56
remaining activity at 100 µM [2]: 88%
remaining activity at 1000 µM [2]: 66%

N=c1ccc([N+](=O)[O-])cn1Cc1ccc(Cl)nc1 [Compound 47, 1-(6-chloro-3-pyridyl)methyl-2-imino-5-nitro-1,2-dihydropyridine]
pKi [1]: 6.64
remaining activity at 100 µM [2]: 93%
remaining activity at 1000 µM [2]: 73%

Cc1ccc(Cn2ccccc2=N)cn1 [Compound 48, 2-imino-1-(6-methyl-3-pyridyl)methyl-1,2-dihydropyridine]
pKi [1]: 7.32
pKi [2]: 4.25

N=C1SCCN1Cc1cccnn1 [Compound 49, 2-imino-3-(3-pyridazinyl)methylthiazolidine]
control % of [3H]-cytisine binding [1, 4]: (62%,
control % of [3H]-cytisine binding [1, 5]: 16%)
remaining activity at 100 µM [2]: 18%
remaining activity at 1000 µM [2]: 14%

Cc1nc(N)n(Cc2ccc(Cl)nc2)c1C [Compound 51, 2-amino-1-(6-chloro-3-pyridyl)methyl-4,5-dimethylimidazole]
control % of [3H]-cytisine binding [1, 4]: (96%
control % of [3H]-cytisine binding [1, 5]: 33%)
remaining activity at 100 µM [2]: 103%
remaining activity at 1000 µM [2]: 53%

Nc1nccn1Cc1cncnc1 [Compound 52, 2-amino-1-(5-pyrimidyl)methylimidazole]
pKi [1]: 7.60
pKi [2]: 3.52

Cc1cn(Cc2ccc(Cl)nc2)c(N)n1 [Compound 53, 2-amino-1-(6-chloro-3-pyridyl)methyl-4-methylimidazole]
pKi [1]: 6.65
remaining activity at 100 µM [2]: 98%
remaining activity at 1000 µM [2]: 56%

Nc1nccn1Cc1cnc(Cl)c(Cl)c1 [Compound 54, 2-amino-1-(5,6-dichloro-3-pyridyl)methylimidazole]
pKi [1]: 8.01
remaining activity at 100 µM [2]: 113%
remaining activity at 1000 µM [2]: 52%

Nc1nccn1Cc1ccc(Cl)cc1 [Compound 58, 2-amino-i-(4-chlorobenzyl)imidazole]
control % of [3H]-cytisine binding [1, 4]: (62%,
control % of [3H]-cytisine binding [1, 5]: 16%)
remaining activity at 100 µM [2]: 62%
remaining activity at 1000 µM [2]: 37%

N=c1sccn1Cc1ccc(Cl)c(Cl)c1 [Compound 60, 3-(3,4-dichlorobenzyl)-2-imino-2,3-dihydrothiazole]
pKi [1]: 7.50
pKi [2]: 4.21

N=c1sccn1Cc1cccc([N+](=O)[O-])c1 [Compound 61, 2-imino-3-(3-nitrobenzyl)-2,3-dihydrothiazole]
pKi [1]: 7.18
pKi [2]: 3.66

Cc1ccc(Cn2ccsc2=N)cc1 [Compound 63, 2-imino-3-(4-methylbenzyl)-2,3-dihydrothiazole]
pKi ([1]; rat brain membrane, [3H]-cytisine (2 nM), read-out: Affinities for receptors Ki α4β2): 6.80
pKi [2]: 3.44

N=c1sccn1Cc1cccc(C(F)(F)F)c1 [Compound 64, 2-imino-3-(3-trifluoromethylbenzyl)-2,3-dihydrothiazole]
control % of [3H]-cytisine binding [1, 4]: (60%,
control % of [3H]-cytisine binding [1, 5]: 15%)
remaining activity at 100 µM [2]: 77%
remaining activity at 1000 µM [2]: 23%

N#Cc1ccc(Cn2ccsc2=N)cc1 [Compound 65, 3-(4-cyanobenzyl)-2-imino-2,3-dihydrothiazole]
pKi [1]: 6.74
pKi [2]: 3.51

N=c1sccn1Cc1c[nH]c2ncccc12 [Compound 66]
pKi [1]: 7.79
pKi [2]: 3.74
